Columns and labels:
Assay in all cases: relative viability (nuclei count vs DMSO), 5 days (fraction); higher = more cells survive
BEN = test system: BEN
Procedure, shortened: (§1)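 Five library-drug doses in √10 steps were combined with a fixed anchor-drug dose, or a single drug was given alone, by pin tool to lung cancer cell lines in 1536-well plates the day after seeding. Nuclei were stained and counted after 5 days. Relative viability is the nuclei count in treated wells over that in vehicle wells, taken as the median of duplicate plates.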

EPLC-272H = test system: EPLC-272H
Procedure, shortened: as §1

HCC-827 = test system: HCC-827
Procedure, shortened: as §1

HOP-62 = test system: HOP-62
Procedure, shortened: as §1

LU99A = test system: LU99A
Procedure, shortened: as §1

LXF-289 = test system: LXF-289
Procedure, shortened: as §1

NCI-H1437 = test system: NCI-H1437
Procedure, shortened: as §1

NCI-H1666 = test system: NCI-H1666
Procedure, shortened: as §1

NCI-H1915 = test system: NCI-H1915
Procedure, shortened: as §1

NCI-H2170 = test system: NCI-H2170
Procedure, shortened: as §1

NCI-H2342 = test system: NCI-H2342
Procedure, shortened: as §1

NCI-H2347 = test system: NCI-H2347
Procedure, shortened: as §1

NCI-H23 = test system: NCI-H23
Procedure, shortened: as §1

NCI-H322M = test system: NCI-H322M
Procedure, shortened: as §1

NCI-H358 = test system: NCI-H358
Procedure, shortened: as §1

NCI-H441 = test system: NCI-H441
Procedure, shortened: as §1

NCI-H522 = test system: NCI-H522
Procedure, shortened: as §1

NCI-H647 = test system: NCI-H647
Procedure, shortened: as §1

NCI-H650 = test system: NCI-H650
Procedure, shortened: as §1

NCI-H727 = test system: NCI-H727
Procedure, shortened: as §1

C=C1C(=O)O[C@@H](CCCCCCCC)[C@@H]1C(=O)O [C-75] + NC(=O)Nc1cc(-c2cccc(F)c2)sc1C(=O)N[C@H]1CCCNC1 [AZD7762] (partner 0.2 µM)
relative viability (BEN; first compound 0.08 µM): 0.676 | relative viability (BEN; first compound 0.253 µM): 0.729 | relative viability (BEN; first compound 0.8 µM): 0.589 | relative viability (BEN; first compound 2.53 µM): 0.633 | relative viability (BEN; first compound 8 µM): 0.627 | relative viability (EPLC-272H; first compound 0.08 µM): 0.23 | relative viability (EPLC-272H; first compound 0.253 µM): 0.257 | relative viability (EPLC-272H; first compound 0.8 µM): 0.188 | relative viability (EPLC-272H; first compound 2.53 µM): 0.196 | relative viability (EPLC-272H; first compound 8 µM): 0.266 | relative viability (HCC-827; first compound 0.253 µM): 0.245 | relative viability (HCC-827; first compound 0.8 µM): 0.201 | relative viability (HCC-827; first compound 8 µM): 0.355 | relative viability (HOP-62; first compound 0.08 µM): 0.592 | relative viability (HOP-62; first compound 0.253 µM): 1.09 | relative viability (HOP-62; first compound 0.8 µM): 0.522 | relative viability (HOP-62; first compound 2.53 µM): 0.657 | relative viability (HOP-62; first compound 8 µM): 0.91 | relative viability (LU99A; first compound 0.08 µM): 0.36 | relative viability (LU99A; first compound 0.253 µM): 0.529 | relative viability (LU99A; first compound 0.8 µM): 0.33 | relative viability (LU99A; first compound 2.53 µM): 0.284 | relative viability (LU99A; first compound 8 µM): 0.401 | relative viability (LXF-289; first compound 0.08 µM): 1.07 | relative viability (LXF-289; first compound 0.253 µM): 1.21 | relative viability (LXF-289; first compound 0.8 µM): 1.02 | relative viability (LXF-289; first compound 2.53 µM): 1.07 | relative viability (LXF-289; first compound 8 µM): 1.21 | relative viability (NCI-H1437; first compound 0.08 µM): 1.11 | relative viability (NCI-H1437; first compound 0.253 µM): 1.09 | relative viability (NCI-H1437; first compound 0.8 µM): 1.09 | relative viability (NCI-H1437; first compound 2.53 µM): 1.09 | relative viability (NCI-H1437; first compound 8 µM): 1.15 | relative viability (NCI-H1666; first compound 0.08 µM): 0.801 | relative viability (NCI-H1666; first compound 0.253 µM): 0.955 | relative viability (NCI-H1666; first compound 0.8 µM): 0.725 | relative viability (NCI-H1666; first compound 2.53 µM): 0.657 | relative viability (NCI-H1666; first compound 8 µM): 0.708 | relative viability (NCI-H1915; first compound 0.08 µM): 0.716 | relative viability (NCI-H1915; first compound 0.253 µM): 0.683 | relative viability (NCI-H1915; first compound 0.8 µM): 0.739 | relative viability (NCI-H1915; first compound 2.53 µM): 0.621 | relative viability (NCI-H1915; first compound 8 µM): 0.79 | relative viability (NCI-H2170; first compound 0.08 µM): 0.945 | relative viability (NCI-H2170; first compound 0.253 µM): 1.1 | relative viability (NCI-H2170; first compound 0.8 µM): 0.858 | relative viability (NCI-H2170; first compound 2.53 µM): 0.737 | relative viability (NCI-H2170; first compound 8 µM): 0.887 | relative viability (NCI-H2342; first compound 0.08 µM): 0.569 | relative viability (NCI-H2342; first compound 0.253 µM): 0.562 | relative viability (NCI-H2342; first compound 0.8 µM): 0.45 | relative viability (NCI-H2342; first compound 2.53 µM): 0.458 | relative viability (NCI-H2342; first compound 8 µM): 0.505 | relative viability (NCI-H2347; first compound 0.08 µM): 0.725 | relative viability (NCI-H2347; first compound 0.253 µM): 1 | relative viability (NCI-H2347; first compound 0.8 µM): 0.715 | relative viability (NCI-H2347; first compound 2.53 µM): 0.705 | relative viability (NCI-H2347; first compound 8 µM): 0.665 | relative viability (NCI-H23; first compound 0.08 µM): 0.255 | relative viability (NCI-H23; first compound 0.253 µM): 0.43 | relative viability (NCI-H23; first compound 0.8 µM): 0.263 | relative viability (NCI-H23; first compound 2.53 µM): 0.197 | relative viability (NCI-H23; first compound 8 µM): 0.376 | relative viability (NCI-H322M; first compound 0.08 µM): 0.587 | relative viability (NCI-H322M; first compound 0.253 µM): 0.684 | relative viability (NCI-H322M; first compound 0.8 µM): 0.552 | relative viability (NCI-H322M; first compound 8 µM): 0.587 | relative viability (NCI-H358; first compound 0.08 µM): 0.55 | relative viability (NCI-H358; first compound 0.253 µM): 0.531 | relative viability (NCI-H358; first compound 0.8 µM): 0.454 | relative viability (NCI-H358; first compound 2.53 µM): 0.456 | relative viability (NCI-H358; first compound 8 µM): 0.477 | relative viability (NCI-H441; first compound 0.08 µM): 1.26 | relative viability (NCI-H441; first compound 0.253 µM): 1.3 | relative viability (NCI-H441; first compound 0.8 µM): 1.05 | relative viability (NCI-H441; first compound 8 µM): 1.06 | relative viability (NCI-H522; first compound 0.08 µM): 0.851 | relative viability (NCI-H522; first compound 0.253 µM): 0.717 | relative viability (NCI-H522; first compound 0.8 µM): 0.846 | relative viability (NCI-H522; first compound 2.53 µM): 0.855 | relative viability (NCI-H522; first compound 8 µM): 0.727 | relative viability (NCI-H647; first compound 0.08 µM): 0.412 | relative viability (NCI-H647; first compound 0.253 µM): 0.405 | relative viability (NCI-H647; first compound 0.8 µM): 0.329 | relative viability (NCI-H647; first compound 2.53 µM): 0.444 | relative viability (NCI-H647; first compound 8 µM): 0.373 | relative viability (NCI-H650; first compound 0.08 µM): 0.935 | relative viability (NCI-H650; first compound 0.253 µM): 0.796 | relative viability (NCI-H650; first compound 0.8 µM): 1.01 | relative viability (NCI-H650; first compound 2.53 µM): 0.81 | relative viability (NCI-H650; first compound 8 µM): 1.02 | relative viability (NCI-H727; first compound 0.08 µM): 0.694 | relative viability (NCI-H727; first compound 0.253 µM): 0.906 | relative viability (NCI-H727; first compound 0.8 µM): 0.4 | relative viability (NCI-H727; first compound 2.53 µM): 0.587 | relative viability (NCI-H727; first compound 8 µM): 0.388
